From patent publication US20120029045A1, “METHOD FOR TREATING PORT WINE STAINS” (SHANGHAI FUDAN-ZHANGJIANG BIO-PHARMACEUTICAL CO., LTD., priority 2010, published 2012)

Columns and labels:
[1] = Pharmacokinetics of HMME in human body; assay type: in vivo
Experimental: Porphyrin-based photosensitizing drugs were injected intravenously at a dose of 2.5 and 5.0 mg/kg body weight for 20 minutes with a constant flow rate, and the pharmokinetics measured. Blood samples were taken at 5, 10, 20, 25, 30, 40, 50, 80, 110, 140, 200, 260 and 380 minutes separately to measure the serum concentrations of porphyrin-based photosensitizing drugs.

port wine stain lesion = experiment: PDT for PWS, therapeutic effect assessment; assay type: in vivo, human
Experimental: The effectiveness of PWS treatment with […] is categorized as being Excellent (I), Good (II), Effective (III) or Ineffective (IV). […] [table] A solution of 1 ml saline was injected in the superficial vein (e.g. median cubital vein) of patients to ensure no liquid leaked into tissues adjacent to the blood vessels into which the injection was made. At the same site, HMME was injected intravenously for 20 minutes with a constant flow rate by using an infusion pump. The doses applied were 2.5 mg/kg body weight or 5.0 mg/kg body weight. Next, 2-4 ml of saline solution was again injected to prevent the drugs from aggregating locally. Irradiation with KTP532 laser was then applied to the patient's lesion site 0-10 minutes after the start of injection, for a total duration of irradiation of either 20 minutes (denoted as the 20 min group), or 30 minutes (denoted as the 30 minute group). […] When irradiation was started immediately after the start of injection, the overlap between the injection and irradiation was about 20 minutes, when irradiation started 5 minutes after the start of injection, the overlap between drug injection and light irradiation was approximately 15 minutes, and when irradiation was started 10 minutes after the start of injection, the overlap was about 10 minutes. The therapeutic results were measured 8 weeks after the treatment. A dose of 5.0 mg/kg body weight of the poryphin based drug was injected, total irradiation durations were 20 min and 30 min respectively, and the effects and adverse effects were assessed. In this example doses of 2.5 and 5.0 mg/kg body weight respectively, were applied, the patient was irradiated for 20 min, and the therapeutic effects and the adverse effects were assessed.

[2] = 2.5 mg/kg iv over 20 min at constant flow rate
[3] = 5.0 mg/kg iv over 20 min at constant flow rate
[4] = 5.0 mg/kg, irradiation 20 min, 8 weeks after treatment
[5] = 5.0 mg/kg, irradiation 30 min, 8 weeks after treatment
[6] = Part B, 2.5 mg/kg group, irradiated 20 min, 8 weeks after treatment
[7] = Part B, 2.5 mg/kg group, irradiated 20 min, 8 weeks after treatment, 2.5 mg/kg
[8] = Part B, 5.0 mg/kg group, irradiated 20 min, 8 weeks after treatment
[9] = Part B, Purple type PWS, 2.5 mg/kg group, irradiated 20 min
[10] = Part B, Purple type PWS, 5.0 mg/kg group, irradiated 20 min
[11] = Part B, Red type PWS, 2.5 mg/kg group, irradiated 20 min
[12] = Part B, Red type PWS, 5.0 mg/kg group, irradiated 20 min
[13] = Part B, Thickening type PWS, 2.5 mg/kg group, irradiated 20 min
[14] = Part B, Thickening type PWS, 5.0 mg/kg group, irradiated 20 min
[15] = Purple type PWS, 5.0 mg/kg, irradiation 20 min
[16] = Purple type PWS, 5.0 mg/kg, irradiation 30 min
[17] = Red type PWS, 5.0 mg/kg, irradiation 20 min
[18] = Red type PWS, 5.0 mg/kg, irradiation 30 min
[19] = Thickening type PWS, 5.0 mg/kg, irradiation 20 min
[20] = Thickening type PWS, 5.0 mg/kg, irradiation 30 min

## hematoporphyrin monomethyl ether [HMME]
[1]; [2]
  AUC0˜n: 6342 ± 2824 ng·h/mL
  Cmax: 17491 ± 7045 ng/mL
  t1/2: 1.26 ± 0.33 h
[1]; [3]
  AUC0˜n: 17531 ± 3467 ng·h/mL
  Cmax: 35724 ± 4539 ng/mL
  t1/2: 1.31 ± 0.33 h
Port wine stain lesion; [4]
  Excellent (cases): 2
  Excellent rate %: 10.0%
  Good (cases): 9
  Ineffective (cases): 4
  Moderate (cases): 5
  Response rate %: 80.0%
  Significant response rate %: 55.0%
Port wine stain lesion; [5]
  Excellent (cases): 7
  Excellent rate %: 36.8%
  Good (cases): 8
  Ineffective (cases): 1
  Moderate (cases): 3
  Response rate %: 94.7%
  Significant response rate %: 78.9%
Port wine stain lesion; [6]
  Excellent (cases): 0
  Good (cases): 1
  Ineffective (cases): 24
  Moderate (cases): 15
  Significant response rate %: 2.5%
Port wine stain lesion; [7]
  Excellent rate %: 0%
  Response rate %: 40%
Port wine stain lesion; [8]
  Excellent (cases): 2
  Excellent rate %: 5.0%
  Good (cases): 14
  Ineffective (cases): 10
  Moderate (cases): 14
  Response rate %: 75.0%
  Significant response rate %: 40.0%
Port wine stain lesion; [9]
  Excellent (cases): 0
  Excellent rate %: 0.0%
  Good (cases): 0
  Ineffective (cases): 14
  Moderate (cases): 3
  Response rate %: 17.6%
  Significant response rate %: 0.0%
Port wine stain lesion; [10]
  Excellent (cases): 0
  Excellent rate %: 0.0%
  Good (cases): 7
  Ineffective (cases): 8
  Moderate (cases): 9
  Response rate %: 66.7%
  Significant response rate %: 29.2%
Port wine stain lesion; [11]
  Excellent (cases): 0
  Excellent rate %: 0.0%
  Good (cases): 1
  Ineffective (cases): 7
  Moderate (cases): 8
  Response rate %: 56.3%
  Significant response rate %: 6.3%
Port wine stain lesion; [12]
  Excellent (cases): 2
  Excellent rate %: 14.3%
  Good (cases): 7
  Ineffective (cases): 1
  Moderate (cases): 4
  Response rate %: 92.9%
  Significant response rate %: 64.3%
Port wine stain lesion; [13]
  Excellent (cases): 0
  Excellent rate %: 0/7
  Good (cases): 0
  Ineffective (cases): 3
  Moderate (cases): 4
  Response rate %: 4/7
  Significant response rate %: 0/7
Port wine stain lesion; [14]
  Excellent (cases): 0
  Excellent rate %: 0/2
  Good (cases): 0
  Ineffective (cases): 1
  Moderate (cases): 1
  Response rate %: 1/2
  Significant response rate %: 0/2
Port wine stain lesion; [15]
  Excellent (cases): 0
  Excellent rate %: 0/0
  Good (cases): 2
  Ineffective (cases): 1
  Moderate (cases): 3
  Response rate %: 5/6
  Significant response rate %: 2/6
Port wine stain lesion; [16]
  Excellent (cases): 1
  Excellent rate %: 1/8
  Good (cases): 5
  Ineffective (cases): 0
  Moderate (cases): 2
  Response rate %: 8/8
  Significant response rate %: 6/8
Port wine stain lesion; [17]
  Excellent (cases): 2
  Excellent rate %: 2/11
  Good (cases): 7
  Ineffective (cases): 0
  Moderate (cases): 2
  Response rate %: 11/11
  Significant response rate %: 9/11
Port wine stain lesion; [18]
  Excellent (cases): 6
  Excellent rate %: 6/10
  Good (cases): 2
  Ineffective (cases): 1
  Moderate (cases): 1
  Response rate %: 9/10
  Significant response rate %: 8/10
Port wine stain lesion; [19]
  Excellent (cases): 0
  Excellent rate %: 0/0
  Good (cases): 0
  Ineffective (cases): 3
  Moderate (cases): 0
  Response rate %: 0/0
  Significant response rate %: 0/0
Port wine stain lesion; [20]
  Excellent (cases): 0
  Excellent rate %: 0/0
  Good (cases): 1
  Ineffective (cases): 0
  Moderate (cases): 0
  Response rate %: 1/1
  Significant response rate %: 1/1
